Experimental data reported in patent publication US20250160329A1, “AGROCHEMICAL ADJUVANTS” (Croda International Pic, priority 2022, published 2025).

System: Botrytis cinerea (ATCC 90479)
Test: Botrytis cinerea hyphal growth inhibition on PDA agar (colony diameter), adjuvant with or without pyraclostrobin
Assay type: cell-based
Details: for Fold Change in Growth Inhibition: 48 h, 22° C., relative to pyraclostrobin alone
Excerpt: As a measure of the adjuvant activity in relation to the activity of the fungicide alone (e.g. pyraclostrobin) to B. cinerea a value of percent inhibition (adjuvant and fungicide) divided by percent inhibition (fungicide) can be defined, with higher values desired. A value of 1 would therefore represent equal activity of the adjuvant/fungicide combination to the fungicide alone, whereas a value above 1 would represent higher activity with the adjuvant/fungicide combination than the fungicide alone. The actives of the present invention may have a value greater than 1. Preferably greater than 1.5, most preferably greater than 2.
Percent Inhibition—The percent inhibition will be understood to represent the amount the fungicide and/or adjuvant that inhibits the visible growth of the microorganism after 48 hours incubation at 22° C. relative to vehicle treated controls. This is calculated using the following formula:
[formula] • where: • ØC=diameter of the colony grown on agar supplemented with vehicle (i.e. vehicle treated control), and • ØT=diameter of the colony grown on agar supplemented with fungicide and/or adjuvant formulated in an appropriate vehicle (i.e. solvent such as water C2H5OH, CH3OH, CH3CN, DMSO).
Fold Change—The fold change is a measure of the adjuvant/fungicide combination in inhibiting a microorganism compared to the fungicide alone. This indicates how the adjuvant performs relative to the fungicide alone. This is calculated using the following formula:
INHAF/INHF • where: • INHAF=percent inhibition of fungal growth when treated with fungicide and adjuvant, and • INHF=percent inhibition of fungal growth when treated with fungicide alone.
Botrytis cinerea (ATCC 90479) was cultured on Difco Potato Dextrose Agar (PDA) for 7 days with diurnal UV cycles (12 h UV light and 12 h dark). Spores were harvested in a buffered, sterile saline solution (w/v: 0.9% NaCl with 1% Tween 80) and counted using a haemocytometer. The spore suspension was adjusted to a final concentration of 8.5×10^6 spores/mL to create a standardised inoculum.
To prepare hyphal fragments for adjuvant testing, 8.5×10^4 spores were used to inoculate 10 mL of Difco Potato Dextrose Broth in a 150×25 mm tube. The tube was incubated at 220 RPM, 22° C. for 48 hours.
To create hyphal fragments from the culture, the culture was transferred to a 50 mL plastic conical tube containing approximately 20 sterile 5 mm diameter glass beads and vortexed for 5 min. […]
Fungicides and adjuvants were dissolved in methanol and added to molten PDA (−50° C.) and then the agar was distributed in the wells of 12 well multiwell plates (1 mL/well). […] The plates were incubated at 22° C. for 48 hours and then the colony diameter was measured using a digital caliper. […]

Compound: O=C1N/C(=C\c2ccccc2)C(=O)N2CCCCC12 (stereo not shown) [DKP (Ia), cyclo(-dhPhe-Pip) diketopiperazine]
- Fold Change in Growth Inhibition (adjuvant 32 μg/mL + pyraclostrobin (Pyra) 0.0156 μg/mL): 3.18
- Fold Change in Growth Inhibition (adjuvant 32 μg/mL + pyraclostrobin (Pyra) 0.0313 μg/mL): 1.36
- Fold Change in Growth Inhibition (adjuvant 32 μg/mL + pyraclostrobin (Pyra) 0.0625 μg/mL): 1.76
- fungicidal activity against B. cinerea (adjuvant alone) (adjuvant alone at […] (so in the source), no fungicide): no fungicidal activity
